The values below come from US5140009A (Tap Pharmaceuticals, Inc., priority 1990, dated 1992).

Each structure is given as a SMILES string. Square brackets hold non-standard residues; d marks the D form. Peptide text beside a SMILES is read from it. * marks the point of attachment. Propanoyl(3-(4-F-phenyl)) = O=C(CCc1ccc(F)cc1)*; Hydrocinnamoyl(2,4-F2) = O=C(CCc1ccc(F)cc1F)*; Propanoyl(3-(4-Cl-Ph)) = O=C(CCc1ccc(Cl)cc1)*; 1Nal = N[C@@H](Cc1cccc2ccccc12)C(=O)O; d1Nal = N[C@H](Cc1cccc2ccccc12)C(=O)O; NMeY = CN[C@@H](Cc1ccc(O)cc1)C(=O)O; Nicotinoyl = O=C(c1cccnc1)*; X9 = O=C(CCc1ccc(Br)cc1)*; X4 = O=C(CCc1cccc(F)c1)*

This test deals with T1, LHRH receptors (Rattus norvegicus, UniProt P30969).
T1 construct: Pituitary membranes containing LHRH receptors are prepared in batches from quick-frozen rat pituitaries; tissue Hilltop Labs; host or cells: rat pituitary membranes
T1 sequence (P30969 1-327): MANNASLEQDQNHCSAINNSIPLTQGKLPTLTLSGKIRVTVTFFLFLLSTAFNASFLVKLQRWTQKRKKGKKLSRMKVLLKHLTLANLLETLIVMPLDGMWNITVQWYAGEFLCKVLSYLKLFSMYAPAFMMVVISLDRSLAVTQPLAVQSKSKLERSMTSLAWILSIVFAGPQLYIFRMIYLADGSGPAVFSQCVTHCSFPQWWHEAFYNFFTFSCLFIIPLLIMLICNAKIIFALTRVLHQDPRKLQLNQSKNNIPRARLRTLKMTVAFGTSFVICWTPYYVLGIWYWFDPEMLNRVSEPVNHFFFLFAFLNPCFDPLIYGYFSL
Put plainly: Receptor Binding (radioligand receptor binding assay). The following applies: table 4; rat pituitary membranes, radioligand 50 pM, 2 hours at 4° C.; read-out: Receptor Binding pkI (converted).

`CCNC(=O)[C@@H]1CCCN1C(=O)[C@H](CCCN=C(N)N)NC(=O)[C@H](CC(C)C)NC(=O)[C@@H](CCCCNC(=O)c1cccnc1)NC(=O)[C@H](Cc1ccc(O)cc1)N(C)C(=O)[C@H](CO)NC(=O)[C@@H](Cc1c[nH]c2ccccc12)NC(=O)CCc1cccc(F)c1` [Compound 153, (3-9)[N-(3-(3-Fluorophenyl)propionyl) -D-Trp^3 -NMeTyr^5 -D-Lys^6 (N-epsilon-nicotinyl)-Pro ^9 NHEt]LHRH] (X4-[dW]S[NMeY][dK](Nicotinoyl)LRP-NHEt): the Ki is 24 pM.

With `CCNC(=O)[C@@H]1CCCN1C(=O)[C@H](CCCN=C(N)N)NC(=O)[C@H](CC(C)C)NC(=O)[C@@H](CCCCNC(=O)c1cccnc1)NC(=O)[C@H](Cc1ccc(O)cc1)N(C)C(=O)[C@H](CO)NC(=O)[C@@H](Cc1c[nH]c2ccccc12)NC(=O)CCc1ccc(Cl)cc1` [Compound 154, (3-9)[N-(3-(4-Chlorophenyl)propionyl) -D-Trp^3 -NMeTyr^5 -DLys^6 (N-epsilon-nicotinyl)-Pro ^9 NHEt]LHRH] ({Propanoyl(3-(4-Cl-Ph))}-[dW]S[NMeY][dK](Nicotinoyl)LRP-NHEt), the Ki is 31.6 pM.

`CCNC(=O)[C@@H]1CCCN1C(=O)[C@H](CCCN=C(N)N)NC(=O)[C@H](CC(C)C)NC(=O)[C@@H](Cc1c[nH]c2ccccc12)NC(=O)[C@H](Cc1ccc(O)cc1)N(C)C(=O)[C@H](CO)NC(=O)[C@@H](Cc1c[nH]c2ccccc12)NC(=O)CCc1ccc(F)cc1F` [Compound 155, (3-9)[N-(3-(2,4-diFluorophenyl)propionyl) -D-Trp^3,6 -NMeTyr^5 -Pro^9 NHEt]LHRH] ({Hydrocinnamoyl(2,4-F2)}-[dW]S[NMeY][dW]LRP-NHEt): the Ki is 49 pM.

With `CCNC(=O)[C@@H]1CCCN1C(=O)[C@H](CCCN=C(N)N)NC(=O)[C@H](CC(C)C)NC(=O)[C@@H](Cc1c[nH]c2ccccc12)NC(=O)[C@H](Cc1ccc(O)cc1)N(C)C(=O)[C@H](CO)NC(=O)[C@@H](Cc1c[nH]c2ccccc12)NC(=O)CCc1ccc(Cl)cc1` [Compound 156, (3-9)[N-(3-(4-Chlorophenyl)propionyl) -D-Trp^3,6 -NMeTyr^5 -Pro^9 NHEt]LHRH] ({Propanoyl(3-(4-Cl-Ph))}-[dW]S[NMeY][dW]LRP-NHEt), the Ki was 69.2 pM.

For `CCNC(=O)[C@@H]1CCCN1C(=O)[C@H](CCCNC(=N)N)NC(=O)[C@H](CC(C)C)NC(=O)[C@@H](Cc1c[nH]c2ccccc12)NC(=O)[C@H](Cc1ccc(O)cc1)N(C)C(=O)[C@H](CO)NC(=O)[C@@H](Cc1cccc2ccccc12)NC(=O)CCc1ccc(F)cc1` [Compound 157, (3-9)[N-(3-(4-Fluorophenyl)propionyl)-D -1-Nal^3 -NMeTyr^5 -D-Trp^6 -Pro^9 NHEt]LHRH] ({Propanoyl(3-(4-F-phenyl))}-[d1Nal]S[NMeY][dW]LRP-NHEt), the Ki is 47.9 pM.

In the case of `CCNC(=O)[C@@H]1CCCN1C(=O)[C@H](CCCNC(=N)N)NC(=O)[C@H](CC(C)C)NC(=O)[C@@H](Cc1c[nH]c2ccccc12)NC(=O)[C@H](Cc1ccc(O)cc1)N(C)C(=O)[C@H](CO)NC(=O)[C@H](Cc1cccc2ccccc12)NC(=O)CCc1ccc(F)cc1` [Compound 158, (3-9)[N-(3-(4-Fluorophenyl)propionyl) -1-Nal^3 -NMeTyr^5 -DTrp^6 -Pro^9 NHEt]LHRH] ({Propanoyl(3-(4-F-phenyl))}-[1Nal]S[NMeY][dW]LRP-NHEt), the Ki is 17.4 pM.

On to `CCNC(=O)[C@@H]1CCCN1C(=O)[C@H](CCCNC(=N)N)NC(=O)[C@H](CC(C)C)NC(=O)[C@@H](Cc1c[nH]c2ccccc12)NC(=O)[C@H](Cc1ccc(O)cc1)N(C)C(=O)[C@H](CO)NC(=O)[C@@H](Cc1cccc2ccccc12)NC(=O)CCc1ccc(Br)cc1` [Compound 159, (3-9)[N-(3-(4-Bromophenyl)propionyl)-D -1-Nal^3 -NMeTyr^5 -DTrp^6 -Pro^9 NHEt]LHRH] (X9-[d1Nal]S[NMeY][dW]LRP-NHEt), for which the Ki is 56.2 pM.
